{"source": "patent US8222419B2", "about": "“Oxepin derivative” (Nippon Zoki Pharmaceutical Co., Ltd., priority 2006, dated 2012)", "key": {"H1 receptor": {"target": "T1, H1 receptor (Mus musculus, UniProt P70174)", "T1 construct": "The excised brain tissue was homogenized with Polytron; from tissue; host or cells: entire brain except cerebellum and medulla oblongata, homogenate", "T1 sequence (P70174 whole entry)": "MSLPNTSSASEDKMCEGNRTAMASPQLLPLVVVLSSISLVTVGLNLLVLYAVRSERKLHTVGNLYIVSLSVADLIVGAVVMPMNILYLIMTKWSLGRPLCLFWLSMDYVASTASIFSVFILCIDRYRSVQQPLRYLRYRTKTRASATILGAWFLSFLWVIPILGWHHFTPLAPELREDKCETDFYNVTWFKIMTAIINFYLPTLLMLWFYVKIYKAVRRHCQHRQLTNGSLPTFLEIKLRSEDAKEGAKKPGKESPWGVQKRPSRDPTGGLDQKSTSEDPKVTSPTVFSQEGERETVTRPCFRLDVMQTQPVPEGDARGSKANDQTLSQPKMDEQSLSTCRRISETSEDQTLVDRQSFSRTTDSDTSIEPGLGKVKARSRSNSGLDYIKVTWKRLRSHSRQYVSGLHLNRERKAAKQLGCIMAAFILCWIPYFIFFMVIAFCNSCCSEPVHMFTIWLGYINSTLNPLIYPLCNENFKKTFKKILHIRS", "experiment": "Murine intracranial H1 receptor content (ex vivo), 3H-pyrilamine binding in brain homogenate after oral dosing", "conditions": "for ID50 (mg/kg)/ED50 (mg/kg): ID50 of intracranial receptor binding test (Table 7) divided by ED50 of histamine-induced vascular hyperpermeability test (Table 6); for ED50: mouse"}, "[1]": {"tested_on": "histamine-induced vascular hyperpermeability", "experiment": "Rat histamine-induced vascular hyperpermeability reaction (in vivo antihistamine action)", "conditions": "SD male rat, oral administration 1 hour before intracutaneous histamine (20 μg/location), Evans Blue leakage after 30 minutes", "protocol": "Rat Histamine-Induced Vascular Hyperpermeability Reaction (in Vivo Antihistamine Action)\nAn SD male rat (SPF) of 180 g in weight was previously fed for one week or more by allowing the rat to take a solid feed and tap water ad libitum, under the environment setting of a temperature of 22° C., humidity of 55% and an artificial illumination of 12 hours a day (light phase 8 am to 8 pm), and the rat was fasted overnight to be used for the experiment. Histamine-dihydrochloride (hereinafter referred to as histamine) and Evans Blue were used by dissolving each in physiological saline upon use. A substance to be tested was dissolved in water for injection or suspended in 0.5% carboxymethyl cellulose sodium, and the rat was orally administered with the solution or suspension (dose volume: 5 mL/kg body weight). After 1 hour from the administration, the physiological saline and the histamine solution were each intracutaneously injected to two locations (20 μg/0.05 ml/location) each on a back part of the rat of which hair was sheared with an electric clipper while anesthetizing with an ether. A 0.5% Evans Blue-containing physiological saline was injected intravenously to the tail (1 mL/200 g body weight) of the rat immediately before the intracutaneous injection of the histamine.\nAfter 30 minutes, the animal was decapitated, and allowed to bleed lethally, and the skin was removed to measure an amount of leaked pigment in the blue-stained portion. The measurement of the amount of leaked pigment was carried out as follows. Skins of the pigment leaking site were cut out at two locations, 1 mL of a 2 mol/L aqueous potassium hydroxide solution was added thereto in a test tube, and the test tube was allowed to stand overnight at 37° C. to dissolve. Thereafter, 6 mL of a 1:3 mixed solution of 0.67 mol/L phosphoric acid and acetone was added to the solution, and the mixture was vigorously shaken for 10 minutes. Thereafter, the mixture was filtered, and the absorbance of the filtrate at 620 nm was measured. The absorbance obtained from the two locations of the sites injected with physiological saline, obtained as blank value, was used for a compensation. The amount of leaked pigment was calculated from the calibration curve of Evans Blue at 620 nm."}, "[2]": {"conditions": "oral administration, brain excised after 1 hour, 3H-pyrilamine 2 nmol/L binding to brain homogenate, read-out: ID50 (the source's name)"}}, "note": "Where two headings read alike, the source gives them in different places."}
{"smiles": "CN1CCC(=C2c3ccc(C(=O)O)cc3COc3ccccc32)CC1", "note": "[Compound 33, 11-(1-Methylpiperidin-4-ylidene)-6,11-dihydrodibenz[b,e]oxepin-8-carboxylic acid]", "values": [{"measurement": "melting point", "value": "210 °C (dec.)"}]}
{"smiles": "CN1CCC(=C2c3ccccc3COc3c(C(=O)O)cccc32)CC1", "note": "[Compound 37, 11-(1-Methylpiperidin-4-ylidene)-6,11-dihydrodibenz[b,e]oxepin-4-carboxylic acid]", "values": [{"measurement": "melting point", "value": "233 °C (dec.)"}]}
{"smiles": "CCOC(=O)c1cccc2c1OCc1ccccc1C2=C1CCN(C)CC1", "note": "[Compound 36, Ethyl 11-(1-methylpiperidin-4-ylidene)-6,11-dihydrodibenz[b,e]oxepin-4-carboxylate]", "values": [{"measurement": "melting point", "value": "124 °C (dec.)"}]}
{"smiles": "CCOC(=O)CNC(=O)c1ccc2c(c1)C(=C1CCN(C)CC1)c1ccccc1CO2", "note": "[Compound 3, Ethyl {[11-(1-methylpiperidin-4-ylidene)-6,11-dihydrodibenz[b,e]oxepin-2-carbonyl]amino}acetate]", "values": [{"measurement": "melting point", "value": "175 to 178", "unit": "°C"}]}
{"smiles": "CCOC(=O)NCc1ccc2c(c1)C(=C1CCN(C)CC1)c1ccccc1CO2", "note": "[Compound 14, Ethyl [11-(1-methylpiperidin-4-ylidene)-6,11-dihydrodibenz[b,e]oxepin-2-ylmethyl]carbamate]", "values": [{"measurement": "melting point", "value": "135 to 136", "unit": "°C"}]}
{"smiles": "CN1CCC(=C2c3ccccc3COc3c(C=CC(=O)O)cccc32)CC1", "note": "[Compound 32, 3-[11-(1-Methylpiperidin-4-ylidene)-6,11-dihydrodibenz[b,e]oxepin-4-yl]acrylic acid]", "values": [{"measurement": "melting point", "value": "188 °C (dec.)"}]}
{"smiles": "COC(=O)C=Cc1ccc2c(c1)C(=C1CCN(C)CC1)c1ccccc1CO2.Cl", "values": [{"measurement": "melting point", "value": "244 °C (dec.)"}]}
{"smiles": "CN1CCC(=C2c3ccccc3COc3ccc(-c4nn[nH]n4)cc32)CC1", "note": "[Compound 8, 1-Methyl-4-[2-(2H-tetrazol-5-yl)-6H-dibenz[b,e]oxepin-11-ylidene]piperidine]", "values": [{"measurement": "melting point", "value": "225 °C (dec.)"}]}
{"smiles": "CN1CCC(=C2c3ccccc3COc3ccc(CNC(=O)OC(C)(C)C)cc32)CC1", "note": "[Compound 9, tert-Butyl [11-(1-methylpiperidin-4-ylidene)-6,11-dihydrodibenz[b,e]oxepin-2-ylmethyl]carbamate]", "values": [{"measurement": "melting point", "value": "145 to 148", "unit": "°C"}]}
{"smiles": "CN1CCC(=C2c3ccccc3COc3ccc(CN)cc32)CC1.Cl.Cl", "values": [{"measurement": "melting point", "value": "140 °C (dec.)"}]}
{"smiles": "CN1CCC(=C2c3ccccc3COc3ccc(C=CC(=O)O)cc32)CC1", "note": "[Compound 7, 3-[11-(1-Methylpiperidin-4-ylidene)-6,11-dihydrodibenz[b,e]oxepin-2-yl]acrylic acid]", "values": [{"measurement": "melting point", "value": "145 °C (dec.)"}, {"measurement": "ID50 (mg/kg)/ED50 (mg/kg)", "setting": "H1 receptor", "value": 4.4}, {"measurement": "ED50", "setting": "H1 receptor; [2]", "value": 1.32, "unit": "mg/kg"}, {"measurement": "ED50", "setting": "[1]", "value": 0.3, "unit": "mg/kg"}]}
{"smiles": "CN1CCC(=C2c3ccccc3COc3ccc(Br)cc32)CC1", "note": "[Compound 4, 4-(2-Bromo-6H-dibenz[b,e]oxepin-11-ylidene)-1-methylpiperidine]", "values": [{"measurement": "melting point", "value": "131 to 132", "unit": "°C"}]}
{"smiles": "CN1CCC(=C2c3ccccc3COc3c(C#N)cccc32)CC1", "note": "[Compound 34, 11-(1-Methylpiperidin-4-ylidene)-6,11-dihydrodibenz[b,e]oxepin-4-carbonitrile]", "values": [{"measurement": "melting point", "value": "175 to 178", "unit": "°C"}]}
{"smiles": "CN1CCC(=C2c3ccccc3COc3ccc(C=O)cc32)CC1", "note": "[Compound 23, 11-(1-Methylpiperidin-4-ylidene)-6,11-dihydrodibenz[b,e]oxepin-2-carboaldehyde]", "values": [{"measurement": "melting point", "value": "157 to 160", "unit": "°C"}]}
{"smiles": "CN1CCC(=C2c3ccccc3COc3ccc(CCC(=O)O)cc32)CC1.Cl", "note": "[Compound 43, 3-[11-(1-Methylpiperidin-4-ylidene)-6,11-dihydrodibenz[b,e]oxepin-2-yl]propionate hydrochloride]", "values": [{"measurement": "ID50 (mg/kg)/ED50 (mg/kg)", "setting": "H1 receptor", "value": ">20.0"}, {"measurement": "ED50", "setting": "H1 receptor; po, 1 h, read-out: ID50", "value": "< 2", "unit": "mg/kg"}, {"measurement": "ED50", "setting": "[1]", "value": 0.1, "unit": "mg/kg"}]}
{"smiles": "CCOC(=O)C=Cc1ccc2c(c1)OCc1ccccc1C2=C1CCN(C)CC1", "note": "[Compound 35, Ethyl 3-[11-(1-methylpiperidin-4-ylidene)-6,11-dihydrodibenz[b,e]oxepin-3-yl]acrylate]", "values": [{"measurement": "melting point", "value": "173 to 175", "unit": "°C"}]}
{"smiles": "CN1CCC(=C2c3ccccc3COc3cc(C(=O)O)ccc32)CC1", "note": "[Compound 18, 11-(1-Methylpiperidin-4-ylidene)-6,11-dihydrodibenz[b,e]oxepin-3-carboxylic acid]", "values": [{"measurement": "melting point", "value": "208 to 212", "unit": "°C"}]}
{"smiles": "CC(=O)NCc1ccc2c(c1)C(=C1CCN(C)CC1)c1ccccc1CO2", "note": "[Compound 15, N-[11-(1-Methylpiperidin-4-ylidene)-6,11-dihydrodibenz[b,e]oxepin-2-ylmethyl]acetamide]", "values": [{"measurement": "melting point", "value": "195 to 196", "unit": "°C"}]}
{"smiles": "CN1CCC(=C2c3ccccc3COc3ccc(NC(N)=O)cc32)CC1", "note": "[Compound 17, [11-(1-Methylpiperidin-4-ylidene)-6,11-dihydrodibenz[b,e]oxepin-2-yl]urea]", "values": [{"measurement": "melting point", "value": "183 °C (dec.)"}, {"measurement": "ID50 (mg/kg)/ED50 (mg/kg)", "setting": "H1 receptor", "value": 60.6}, {"measurement": "ED50", "setting": "H1 receptor; [2]", "value": 37.6, "unit": "mg/kg"}, {"measurement": "ED50", "setting": "[1]", "value": 0.62, "unit": "mg/kg"}]}
{"smiles": "CN1CCC(=C2c3ccccc3COc3cc(Br)ccc32)CC1", "note": "[Compound 12, 4-(3-Bromo-6H-dibenz[b,e]oxepin-11-ylidene)-1-methylpiperidine]", "values": [{"measurement": "melting point", "value": "127 to 128", "unit": "°C"}]}
{"smiles": "CN1CCC(=C2c3ccccc3CC(=O)c3sccc32)CC1", "note": "[Ketotifen, reference compound]", "values": [{"measurement": "ED50", "setting": "[1]", "value": 0.54, "unit": "mg/kg"}]}
{"smiles": "CN1CCC(=C2c3ccccc3COc3ccc(C=CCO)cc32)CC1.Cl", "values": [{"measurement": "melting point", "value": "118 °C (dec.)"}]}
{"smiles": "CN1CCC(=C2c3ccccc3COc3ccc(CC(=O)O)cc32)CC1", "note": "[Compound 24, [11-(1-Methylpiperidin-4-ylidene)-6,11-dihydrodibenz[b,e]oxepin-2-yl]acetic acid]", "values": [{"measurement": "melting point", "value": "226 °C (dec.)"}, {"measurement": "ID50 (mg/kg)/ED50 (mg/kg)", "setting": "H1 receptor", "value": 53.3}, {"measurement": "ED50", "setting": "H1 receptor; [2]", "value": 1.6, "unit": "mg/kg"}, {"measurement": "ED50", "setting": "[1]", "value": 0.03, "unit": "mg/kg"}]}
{"smiles": "CN1CCC(=C2c3ccccc3COc3ccc(C(=O)NCCO)cc32)CC1", "note": "[Compound 19, N-(2-Hydroxyethyl)-11-(1-methylpiperidin-4-ylidene)-6,11-dihydrodibenz[b,e]oxepin-2-carboxamide]", "values": [{"measurement": "melting point", "value": "234 to 236", "unit": "°C"}]}
{"smiles": "Cc1ccc2c(c1)C(=C1CCN(C)CC1)c1ccccc1CO2", "note": "[Compound 16, 1-Methyl-4-(2-methyl-6H-dibenz[b,e]oxepin-11-ylidene)-piperidine]", "values": [{"measurement": "melting point", "value": "133 to 134", "unit": "°C"}]}
{"smiles": "CN1CCC(=C2c3ccccc3COc3cc(C#N)ccc32)CC1", "note": "[Compound 13, 11-(1-Methylpiperidin-4-ylidene)-6,11-dihydrodibenz[b,e]oxepin-3-carbonitrile]", "values": [{"measurement": "melting point", "value": "175 to 176", "unit": "°C"}]}
{"smiles": "CN1CCC(=C2c3ccccc3COc3ccc(CNC(=O)CCC(=O)O)cc32)CC1", "note": "[Compound 26, N-[11-(1-Methylpiperidin-4-ylidene)-6,11-dihydrodibenz[b,e]oxepin-2-ylmethyl]succinamic acid]", "values": [{"measurement": "melting point", "value": "144 °C (dec.)"}]}
{"smiles": "CN1CCC(=C2c3ccccc3COc3ccc(CO)cc32)CC1", "note": "[Compound 21, [11-(1-Methylpiperidin-4-ylidene)-6,11-dihydrodibenz[b,e]oxepin-2-yl]methanol]", "values": [{"measurement": "melting point", "value": "140 to 143", "unit": "°C"}]}
{"smiles": "CCOC(=O)CCC(=O)NCc1ccc2c(c1)C(=C1CCN(C)CC1)c1ccccc1CO2", "note": "[Compound 27, Ethyl N-[11-(1-methylpiperidin-4-ylidene)-6,11-dihydrodibenz[b,e]oxepin-2-ylmethyl]succinamate]", "values": [{"measurement": "melting point", "value": "150 to 152", "unit": "°C"}]}
{"smiles": "CN1CCC(=C2c3ccccc3COc3ccc(CNC(=O)c4ccccc4)cc32)CC1", "note": "[Compound 20, N-[11-(1-Methylpiperidin-4-ylidene)-6,11-dihydrodibenz[b,e]oxepin-2-ylmethyl]benzamide]", "values": [{"measurement": "melting point", "value": "218 to 219", "unit": "°C"}]}
{"smiles": "CCOC(=O)c1ccc2c(c1)C(=C1CCN(C)CC1)c1ccccc1CO2.Cl", "values": [{"measurement": "melting point", "value": "270 °C (dec.)"}]}
{"smiles": "CN1CCC(=C2c3ccccc3COc3ccc(C(=O)O)cc32)CC1", "note": "[Compound 1, 11-(1-Methylpiperidin-4-ylidene)-6,11-dihydrodibenz[b,e]oxepin-2-carboxylic acid]", "values": [{"measurement": "ID50 (mg/kg)/ED50 (mg/kg)", "setting": "H1 receptor", "value": 27.2}, {"measurement": "ED50", "setting": "H1 receptor; [2]", "value": 1.25, "unit": "mg/kg"}, {"measurement": "ED50", "setting": "[1]", "value": 0.046, "unit": "mg/kg"}]}
{"smiles": "CN1CCC(=C2c3cc(C(=O)O)ccc3COc3ccccc32)CC1", "note": "[Compound 28, 11-(1-Methylpiperidin-4-ylidene)-6,11-dihydrodibenz[b,e]oxepin-9-carboxylic acid]", "values": [{"measurement": "melting point", "value": "251 °C (dec.)"}]}
{"smiles": "CCOC(=O)c1ccc2c(c1)C(=C1CCN(C)CC1)c1ccccc1OC2", "note": "[Compound 29, Ethyl 11-(1-methylpiperidin-4-ylidene)-6,11-dihydrodibenz[b,e]oxepin-9-carboxylate]", "values": [{"measurement": "melting point", "value": "124 °C (dec.)"}]}
{"smiles": "CCOC(=O)C=Cc1cccc2c1OCc1ccccc1C2=C1CCN(C)CC1", "note": "[Compound 31, Ethyl 3-[11-(1-methylpiperidin-4-ylidene)-6,11-dihydrodibenz[b,e]oxepin-4-yl]acrylate]", "values": [{"measurement": "melting point", "value": "126 to 127", "unit": "°C"}]}
